Experiments:
[1] = target: T1, NQO1 (Homo sapiens, UniProt P15559); test: NQO1 CoQ oxidoreductase activity assay; type: biochemical
T1 construct: His6 (N); TEV cleavage site (N); made in house; host or cells: E. coli LOBSTR-BL21 (DE3)
Method: FSP1 and NQO1% Activity Curves: To measure in vitro activity of FSP1 and NQO1 for IC50 calculation, recombinant purified FSP1 and NQO1 were diluted in PBS. FSEN1 was dissolved and diluted in DMSO, and […] FSEN1 and 12.5 μL FSP1/NQO1 were mixed on an orbital shaker for 45 seconds at 450 rpm and incubated for 30 minutes in a NBS polystyrene 384-well plate (Corning Ref: 3640) at RT. NADH (Millipore Cat: 481913) was dissolved and diluted in PBS, and CoQ1 (Sigma-Aldrich SKU: C7956) was dissolved in DMSO and diluted in PBS. Diluted NADH and CoQ1 were combined into a 2×reaction mix and added to the plate wells to start the reaction. Final well volume was 25 μL, and final concentrations were 12.5n M FSP1, 400 µM CoQ1, 500 µM NADH, and 0.01-20 µM FSEN1. NADH Absorbance (355 nm) was measured as an inverse read-out of enzymatic product formation on a kinetic cycle with an interval time of 2.5 minutes at RT. All data was acquired using a Tecan infinite M1000. Raw data from 3 biological replicates were then plotted and initial slopes were calculated using a linear regression in prism (GraphPad), and all rates were normalized to vehicle (0 nM FSEN1) and No Protein controls where the highest and lowest slope values were used as 0 and 100%. […]

[2] = system: panel of cancer cell lines of various tissue origins; test: RSL3-induced cell death in a panel of cancer cell lines; type: cell-based; settings: 1 μM FSEN1; lung, breast, liver, glial, bone, connective, lymphoid, skin lines
Method: For cell-based screen, cells were seeded in triplicate at a density of 500-750 cells per 50 μL per well in black 384-well plates (NUNC) and (Corning) 24 hr before start of imaging. After 24 hr, an additional 50 μL of drug infused medium containing 30 nM SYTOX Green Dead Cell Stain was carefully placed into the wells on top of existing medium. The plates were immediately transferred to an IncuCyte S3 imaging system (Essen Bioscience) enclosed in an incubator set to 37° C. and 5% CO2. One image per well were captured in the phase, green, and red channels every 1.5 or 3 hr over a 24 hr period, and the ratio of SYTOX Green-positive objects (dead cells) to SYTOX Green-positive plus Sg-SAFE mCherry-positive objects (total cells) was quantified using S3 image analysis software (Essen Bioscience). For each treatment condition, the SYTOX-to-′SYTOX+mCherry′-object ratio was plotted against the 24 hr imaging interval, the Area Under the Curve (AUC) was calculated and the average AUC was plotted using Prism (GraphPad). To calculate the half-maximal effective concentration (EC50) values, the AUC curve was fit to a variable slope function comparing response to drug concentration. […]

T1 sequence (P15559 2-274): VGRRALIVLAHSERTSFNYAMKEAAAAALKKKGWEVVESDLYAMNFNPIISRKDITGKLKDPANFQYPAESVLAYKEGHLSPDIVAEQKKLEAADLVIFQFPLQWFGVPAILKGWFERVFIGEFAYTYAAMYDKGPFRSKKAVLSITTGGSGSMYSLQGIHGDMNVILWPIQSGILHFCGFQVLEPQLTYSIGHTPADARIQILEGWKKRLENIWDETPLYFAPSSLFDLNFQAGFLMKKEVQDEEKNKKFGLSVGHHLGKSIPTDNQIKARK

- effect on the CoQ oxidoreductase activity of NQO1 [1]: no effect
Structure (SMILES): COc1ccc(N2CCN(Cc3cn4c(-c5ccc(Br)cc5)nnc4s3)CC2)cc1 [FSEN1]
- sensitization to RSL3-induced ferroptosis [2]: sensitized all cancer cells

Reference: patent publication US20250161297A1, “COMPOSITIONS AND METHODS FOR INHIBITING FSP1” (THE REGENTS OF THE UNIVERSITY OF CALIFORNIA, priority 2022, published 2025)
